US12427346B2, “P62 ligand compound, and composition for preventing, ameliorating or treating proteinopathies comprising the same” (AUTOTAC INC., priority 2018, dated 2025)
Counter-ions that a name gives are not always drawn.

Experiments:
p62 protein = biological target: T1, p62 protein (Homo sapiens, UniProt Q13501); experiment: Oligomerization activity of p62 protein by immunoblotting (Experimental Example 1); type: cell-based; details: HEK293 cell lysate treated with test compounds at room temperature for 2 hours; immunoblot, FIG. 2
T1 construct: endogenous in cells; host or cells: HEK293 (lysate treated with compounds)
T1 sequence (Q13501 whole entry): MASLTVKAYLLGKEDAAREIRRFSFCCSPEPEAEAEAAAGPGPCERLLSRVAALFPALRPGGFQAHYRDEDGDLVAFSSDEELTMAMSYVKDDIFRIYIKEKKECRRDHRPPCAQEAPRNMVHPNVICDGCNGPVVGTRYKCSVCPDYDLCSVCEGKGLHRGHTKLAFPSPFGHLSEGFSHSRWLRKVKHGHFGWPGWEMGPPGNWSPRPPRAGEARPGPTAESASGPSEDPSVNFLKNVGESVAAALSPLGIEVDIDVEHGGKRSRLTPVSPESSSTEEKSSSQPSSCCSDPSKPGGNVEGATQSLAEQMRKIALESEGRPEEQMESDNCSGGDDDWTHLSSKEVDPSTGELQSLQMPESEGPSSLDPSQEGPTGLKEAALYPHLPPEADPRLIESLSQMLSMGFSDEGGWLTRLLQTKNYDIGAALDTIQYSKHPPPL
From the text: In order to evaluate the p62 protein oligomerization activity efficacy by the compounds (Examples 1-25), HEK293 cell line, which is human embryonic kidney-derived cell, was collected. As the representative compounds among the present compounds, the compounds of Examples 1, 2, 3, 5, 6, 7, 8, 9, 12, and 13 (Example 10 (YT-5-1), Example 11 (YT-5-2), Example 12 (YT 5-7), Example 13 (YT 5-8), Example 15 (YT-8-7), Example 16 (YT-8-8), Example 17 (YTK-107), Example 18 ([…]), Example 20 (ATB10041), Example 21 (ATB10042), Example 22 (ATB10043), Example 23 (ATB10044), Example 24 (ATB10045) and Example 25 (ATB10046)) were selected. In order to measure intracellular p62 protein activation and oligomerization according to the treatment with these selected representative compounds, the respective cells were dispensed into a 100 pi dish. The cells were collected after further culturing for 24 hours so that the cells were completely attached to the surface of the plate. 100 ul of lysis buffer (20 mM Tris, pH 7.4), 150 mM NaCl, 1% Triton X-100, 2 mM NaF, 2 mM EDTA, 2 mM beta-glycerophosphate, 5 mM sodium orthovanadate, 1 mM PMSF, leupeptin, aprotinin) were injected into each sample and the cells were lysed. Based on the measured total protein concentration, each sample was treated with test compounds at room temperature for 2 hours, and then a sample buffer was added and allowed to react at 95° C. for 10 minutes. 25 ul was taken from the samples after the reaction, and dispensed into each well of acrylamide gel, and then immunoblotting was performed.

LC3 [1] = experiment: Autophagy activity in cultured cells by immunoblotting, treatment time (Experimental Example 3); type: cell-based, human; details: HeLa cells; 5 μM for 1, 3, 6, 12, 24, 48 hours or 10 μM for 24 hours; immunoblot, FIG. 4
Description: In order to investigate the autophagy activity efficacy by the compounds (Examples 1-25), immunoblotting was performed in the same manner as in Experimental Example 2 using LC3 as a marker. As for the difference, in order to evaluate the treatment time required for activation and the activity retention time, 5 μM of the representative compounds selected among the present compounds (Example 5 (YTK-1005), Example 6 (YTK-1205), Example 7 (YTK-1305), Example 2 (YTK-2205), Example 3 (YTK-3305), Example 14 (YTK-1108), Example 8 (YTK-105), Example 9 (YTK-205)) were treated for 1, 3, 6, 12, 24, 48 hours. On the other hand, 10 μM of the representative compounds selected among the present compounds (Example 10 (YT 5-1), Example 11 (YT 5-2), Example 16 (YT 8-8), Example 15 (YT 8-7), Example 17 (YTK-107), Example 18 (YTK-207), Example 20 (ATB10041), Example 21 (ATB10042), Example 22 (ATB10043), Example 23 (ATB10044), Example 24 (ATB10045), Example 25 (ATB10046)) were treated for 24 hours.

LC3 [2] = experiment: Autophagy activity of control compounds by immunoblotting (Experimental Example 4); type: cell-based, human; details: different concentrations and different times; immunoblot, FIG. 5
Description: In order to investigate the autophagy activity efficacy of control compounds, immunoblotting was performed in the same manner as in Experimental Example 2 by using LC3 as a marker. As the control compounds, compounds having the following structure were used.

LC3 [3] = experiment: Autophagy activity in cultured cells by immunoblotting, concentration series (Experimental Example 2); type: cell-based, human; details: HeLa cells; 1, 2, 5, 10 and 20 μM, 24 hours; immunoblot, FIG. 3
Description: In order to evaluate the autophagy activity efficacy by the compounds (Examples 1-25), HeLa cell line, which is a cell line derived from a cervical cancer patient, was cultured using a DMEM medium containing 10% FBS and 1% streptomycin/penicillin in an incubator with 5% carbon dioxide. As the representative compounds among the present compounds, the compounds of Examples 1, 2, 3, 5, 6, 7, 8, 9, 12 and 13 (Example 5 (YTK-1005), Example 1 (YTK-1105), Example 6 (YTK-1205), Example 7 (YTK-1305), Example 2 (YTK-2205), Example 3 (YTK-3305), Example 8 (YTK-105), Example 9 (YTK-205), Example 14 (YTK-1108), Example 12 (YT 5-7), Example 13 (YT 5-8)), Example 20 (ATB10041), Example 21 (ATB10042), Example 22 (ATB10043), Example 23 (ATB10044), Example 24 (ATB10045), and Example 25 (ATB10046)) were selected. In order to measure autophagy activity according to the treatment with these selected representative compounds, the respective cells were dispensed into 6 well plates. Additional cultures were performed for 24 hours so that the cells were completely attached to the surface of the plate. To find the concentration at which the respective compounds could increase the phenomenon of autophagy, the test compounds were diluted at 1, 2, 5, 10 and 20 μM and treated. After treatment with the respective compounds, the cells were cultured again in a cell incubator for 24 hours, and then the cells were collected. To extract proteins from the collected cells, 100 ul of lysis buffer (20 mM Tris (pH 7.4), 150 mM NaCl, 1% Triton X-100, 2 mM NaF, 2 mM EDTA, 2 mM beta-glycerophosphate, 5 mM sodium orthovanadate, 1 mM PMSF, leupeptin, aprotinin) was injected into each sample, and cells were lysed. Based on the measured total protein concentration, a sample buffer was added to each sample and allowed to react at 100° C. for 5 minutes. 5 ul was taken from the samples after the reaction, and dispensed into each well of acrylamide gel, and then immunoblotting was performed.

| SMILES | autophagy activity (level of LC3) (LC3 [1]) | autophagy activity (level of LC3) of control compounds (LC3 [2]) | also measured |
| --- | --- | --- | --- |
| O=C(NCCO)NCc1ccc(OCc2ccccc2)c(OCc2ccccc2)c1 [ATB10041, 1-(3,4-bis(benzyloxy)benzyl)-3-(2-hydroxyethyl)urea] | increasing the autophagy activity |  | p62 protein oligomerization activity (monomer, oligomers and high-molecular aggregates) (p62 protein): increasing the p62 protein oligomerization activity |
| O=C(CO)NCc1ccc(OCc2ccccc2)c(OCc2ccccc2)c1 [ATB10042, N-(3,4-bis(benzyloxy)benzyl)-2-hydroxyacetamide] | increasing the autophagy activity |  | p62 protein oligomerization activity (monomer, oligomers and high-molecular aggregates) (p62 protein): increasing the p62 protein oligomerization activity |
| N[C@H](CNCc1ccc(OCc2ccccc2)c(OCc2ccccc2)c1)C(=O)O [ATB10043, (R)-2-amino-3-((3,4-bis(benzyloxy)benzyl)amino)propanoic acid] | increasing the autophagy activity |  | p62 protein oligomerization activity (monomer, oligomers and high-molecular aggregates) (p62 protein): increasing the p62 protein oligomerization activity |
| NC(=O)CNCc1ccc(OCc2ccccc2)c(OCc2ccccc2)c1 [ATB10044, 2-((3,4-bis(benzyloxy)benzyl)amino)acetamide] | increasing the autophagy activity |  | p62 protein oligomerization activity (monomer, oligomers and high-molecular aggregates) (p62 protein): increasing the p62 protein oligomerization activity |
| COc1cc(CNCCO)cc(OCc2ccccc2)c1OCc1ccccc1 [ATB10045, 2-((3,4-bis(benzyloxy)-5-methoxybenzyl)amino)ethan-1-ol] | increasing the autophagy activity |  | p62 protein oligomerization activity (monomer, oligomers and high-molecular aggregates) (p62 protein): increasing the p62 protein oligomerization activity |
| OCCNCc1cc(Cl)c(OCc2ccccc2)c(OCc2ccccc2)c1 [ATB10046, 2-((3,4-bis(benzyloxy)-5-chlorobenzyl)amino)ethan-1-ol] | increasing the autophagy activity |  | p62 protein oligomerization activity (monomer, oligomers and high-molecular aggregates) (p62 protein): increasing the p62 protein oligomerization activity |
| O=Cc1ccc(OCc2ccccc2)c(OCc2ccccc2)c1 [Example 1101, 3,4-bis(benzyloxy)benzaldehyde] |  | do not increase autophagy activity |  |
| Oc1ccc(OCc2ccccc2)c(OCc2ccccc2)c1 [Example 1102, 3,4-bis(benzyloxy)phenol] |  | do not increase autophagy activity |  |
| c1ccc(COc2ccc(OC[C@H]3CO3)cc2OCc2ccccc2)cc1 [Example 1103, (R)-2-((3,4-bis(benzyloxy)phenoxy)methyl)oxirane] |  | do not increase autophagy activity |  |
| O=Cc1ccc(OCc2ccccc2)c(OCCc2ccccc2)c1 [Example 1201, 4-(benzyloxy)-3-phenethoxybenzaldehyde] |  | do not increase autophagy activity |  |
| Oc1ccc(OCc2ccccc2)c(OCCc2ccccc2)c1 [Example 1202, 4-(benzyloxy)-3-phenethoxyphenol] |  | do not increase autophagy activity |  |
| c1ccc(CCOc2cc(OC[C@H]3CO3)ccc2OCc2ccccc2)cc1 [Example 1203, (R)-2-((4-(benzyloxy)-3-phenethoxyphenoxy)methyl)oxirane] |  | do not increase autophagy activity |  |
| O=Cc1ccc(OCc2ccccc2)c(OCCCc2ccccc2)c1 [Example 1301, 4-(benzyloxy)-3-(3-phenylpropoxy)benzaldehyde] |  | do not increase autophagy activity |  |
| Oc1ccc(OCc2ccccc2)c(OCCCc2ccccc2)c1 [Example 1302, 4-(benzyloxy)-3-(3-phenylpropoxy)phenol] |  | do not increase autophagy activity |  |
| O=Cc1ccc(OCc2ccccc2)c(OCCCCc2ccccc2)c1 [Example 1401, 4-(benzyloxy)-3-(4-phenylbutoxy)benzaldehyde] |  | do not increase autophagy activity |  |
| Oc1ccc(OCc2ccccc2)c(OCCCCc2ccccc2)c1 [Example 1402, 4-(benzyloxy)-3-(4-phenylbutoxy)phenol] |  | do not increase autophagy activity |  |
| O=Cc1ccc(OCCc2ccccc2)c(OCCc2ccccc2)c1 [Example 2201, 3,4-diphenethoxybenzaldehyde] |  | do not increase autophagy activity |  |
| Oc1ccc(OCCc2ccccc2)c(OCCc2ccccc2)c1 [Example 2202, 3,4-diphenethoxyphenol] |  | do not increase autophagy activity |  |
| Oc1ccc(OCCCCc2ccccc2)c(OCCCCc2ccccc2)c1 [Example 4402, 3,4-bis(4-phenylbutoxy)phenol] |  | do not increase autophagy activity |  |
| OCCNCc1ccc(OCc2ccccc2)c(OCc2ccccc2)c1 [YTK-1105, 2-((3,4-bis(benzyloxy)benzyl)amino)ethan-1-ol] |  |  | autophagy activity (level of LC3) (LC3 [3]): increasing the autophagy activity |
| OCCCCc1ccc(OCc2ccccc2)c(OCc2ccccc2)c1 [YTK-1105-1, 4-(3,4-bis(benzyloxy)phenyl)butan-1-ol] |  | do not increase autophagy activity |  |
| OCCNCCNCc1ccc(OCc2ccccc2)c(OCc2ccccc2)c1 [YTK-HCl-1108, 2-((2-((3,4-bis(benzyloxy)benzyl)amino)ethyl)amino)ethan-1-ol] | increasing the autophagy activity |  |  |
| OCCNCc1ccc(OCc2ccccc2)c(OCCc2ccccc2)c1 [YTK-HCl-1205, 2-((4-(benzyloxy)-3-phenethoxybenzyl)amino)ethan-1-ol] | increasing the autophagy activity |  |  |
| OCCNCc1ccc(OCc2ccccc2)c(OCCCc2ccccc2)c1 [YTK-HCl-1305, 2-((4-(benzyloxy)-3-(3-phenylpropoxy)benzyl)amino)ethan-1-ol] | increasing the autophagy activity |  |  |
| OCCNCc1ccc(OCCc2ccccc2)c(OCCc2ccccc2)c1 [YTK-HCl-2205, 2-((3,4-diphenethoxybenzyl)amino)ethan-1-ol] | increasing the autophagy activity |  |  |
| OCCNCc1ccc(OCCCc2ccccc2)c(OCCCc2ccccc2)c1 [YTK-HCl-3305, 2-((3,4-bis(3-phenylpropoxy)benzyl)amino)ethan-1-ol] | increasing the autophagy activity |  |  |
